{"source": "patent US20040029276A1", "about": "“Fish attractants” (priority 2000, published 2004)", "key": {"[1]": {"tested_on": "olfactory system of the male fish", "settings": "olfactory detection of the sex pheromone, Sorenson et al. 1987; cited from earlier work"}, "male and female carp": {"tested_on": "male and female carp", "test": "Electrophysiological and behavioural studies in an experimental behaviour chamber", "format": "in vivo", "excerpt": "A particular composition which includes either a pure or crude synthetic form of 17,20β-dihydroxy-4-pregnen-3-one with an ethanol carrier has been tested by the inventors in laboratory experiments."}, "carp": {"tested_on": "carp", "test": "Behavioural response of carp in a Perspex flow-through experimental flume", "format": "in vivo", "description": "The behaviour of carp in response to 17,20β-dihydroxy-4-pregnen-3-one was studied in a Perspex flow-through experimental flume. Fish were placed in the flume individually and allowed to acclimatise for a minimum of 1 hour before each experiment. The first set of experiments determined the behavioural response of male (n=5) and female (n=5) carp to serial dilutions of pure and synthetic form of 17,20β-dihydroxy-4-pregnen-3-one. Dilutions ranged from one part in 10^5 to one part in 10^11. The second set of experiments tested the behavioural response of male and female carp (n=6) to the same serial dilutions of synthetic 17,20β-dihydroxy-4-pregnen-3-one as used in Experiment 1, but with the addition of 5 dyed-gelatine pellets on the bottom of the flume. […] This feeding behaviour was characterised by the following: […]"}}, "data": [{"smiles": "C[C@@H](O)[C@@]1(O)CC[C@H]2[C@@H]3CCC4=CC(=O)CC[C@]4(C)[C@H]3CC[C@@]21C", "note": "[17,20β-dihydroxy-4-pregnen-3-one]", "values": [{"measurement": "threshold concentration for the male fish", "setting": "[1]", "result": "about 10^−13 M"}, {"measurement": "feeding behaviour on detection of the hormone", "setting": "male and female carp; experimental behaviour chamber", "result": "results in feeding behaviour"}, {"measurement": "detection of the hormone by the fish", "setting": "male and female carp; pure or crude synthetic form with an ethanol carrier", "result": "detected by both male and female carp"}, {"measurement": "feeding behaviour in carp", "setting": "carp; added to the behaviour chamber at concentrations ranging from 10^−5 to one part in 10^−10", "result": "resulted in feeding behaviour in carp"}, {"measurement": "attraction of fish", "setting": "carp; sexually immature carp", "result": "attracted immature carp"}, {"measurement": "feeding behaviour in immature carp", "setting": "carp; sexually immature carp", "result": "resulted in feeding behaviour in these individuals"}]}]}
